According to patent US8916576B2 (Surface Logix, Inc., priority 2005, dated 2014):
pIC50: −log10 of the molar value. Several values for one entry are separate records, joined by “and”; a condition that tells them apart may be missing. Equal entries are not always repeated.

target: ROCK2 (Homo sapiens (Human), UniProt O75116); test: Inhibition of ROCK2 (Rho kinase inhibition assay; ROCK-II Assay Kit / IMAP); type: biochemical; conditions: FIG. 10 legend; ROCK2 versus ROCK1 and PKC
Excerpt: (§1) Methods of determining kinase inhibition are well known in the art. For example, kinase activity of an enzyme and the inhibitory capacity of a test compound can be determined by measuring enzyme specific phosphorylation of a substrate. Commercial assays and kits can be employed. For example, kinase inhibition can be determined using an IMAP® assay (Molecular Devices). This assay method involves the use of a fluorescently-tagged peptide substrate. Phosphorylation of the tagged peptide by a kinase of interest promotes binding of the peptide to a trivalent metal-based nanoparticle via the specific, high affinity interaction between the phospho-group and the trivalent metal. Proximity to the nanoparticle results in increased fluorescence polarization. Inhibition of the kinase by a kinase inhibitor prevents phosphorylation of the substrate and thereby limits binding of the fluorescently-tagged substrate to the nanoparticle. Such an assay can be compatible with a microwell assay format, allowing simultaneous determination of IC50 of multiple compounds.
ROCK-II inhibitory activity can be measured using the ROCK-II Assay Kit (Molecular Devices, inc.; Sunnyvale, Calif.).
(§2) Inhibition of ROCK2 by various compounds was determined.
(§3) Inhibitory activity for Rho kinase was determined for examples of compounds of the present invention. Inhibition of Rho kinase can be assayed as described. For each of these compounds their inhibitory activity for both ROCK 1 and ROCK 2 was determined. […] The IC50 values (in μM) for each of these compounds show a selectivity for inhibiting ROCK2.

Chain of ROCK2 (O75116 whole entry, species assumed): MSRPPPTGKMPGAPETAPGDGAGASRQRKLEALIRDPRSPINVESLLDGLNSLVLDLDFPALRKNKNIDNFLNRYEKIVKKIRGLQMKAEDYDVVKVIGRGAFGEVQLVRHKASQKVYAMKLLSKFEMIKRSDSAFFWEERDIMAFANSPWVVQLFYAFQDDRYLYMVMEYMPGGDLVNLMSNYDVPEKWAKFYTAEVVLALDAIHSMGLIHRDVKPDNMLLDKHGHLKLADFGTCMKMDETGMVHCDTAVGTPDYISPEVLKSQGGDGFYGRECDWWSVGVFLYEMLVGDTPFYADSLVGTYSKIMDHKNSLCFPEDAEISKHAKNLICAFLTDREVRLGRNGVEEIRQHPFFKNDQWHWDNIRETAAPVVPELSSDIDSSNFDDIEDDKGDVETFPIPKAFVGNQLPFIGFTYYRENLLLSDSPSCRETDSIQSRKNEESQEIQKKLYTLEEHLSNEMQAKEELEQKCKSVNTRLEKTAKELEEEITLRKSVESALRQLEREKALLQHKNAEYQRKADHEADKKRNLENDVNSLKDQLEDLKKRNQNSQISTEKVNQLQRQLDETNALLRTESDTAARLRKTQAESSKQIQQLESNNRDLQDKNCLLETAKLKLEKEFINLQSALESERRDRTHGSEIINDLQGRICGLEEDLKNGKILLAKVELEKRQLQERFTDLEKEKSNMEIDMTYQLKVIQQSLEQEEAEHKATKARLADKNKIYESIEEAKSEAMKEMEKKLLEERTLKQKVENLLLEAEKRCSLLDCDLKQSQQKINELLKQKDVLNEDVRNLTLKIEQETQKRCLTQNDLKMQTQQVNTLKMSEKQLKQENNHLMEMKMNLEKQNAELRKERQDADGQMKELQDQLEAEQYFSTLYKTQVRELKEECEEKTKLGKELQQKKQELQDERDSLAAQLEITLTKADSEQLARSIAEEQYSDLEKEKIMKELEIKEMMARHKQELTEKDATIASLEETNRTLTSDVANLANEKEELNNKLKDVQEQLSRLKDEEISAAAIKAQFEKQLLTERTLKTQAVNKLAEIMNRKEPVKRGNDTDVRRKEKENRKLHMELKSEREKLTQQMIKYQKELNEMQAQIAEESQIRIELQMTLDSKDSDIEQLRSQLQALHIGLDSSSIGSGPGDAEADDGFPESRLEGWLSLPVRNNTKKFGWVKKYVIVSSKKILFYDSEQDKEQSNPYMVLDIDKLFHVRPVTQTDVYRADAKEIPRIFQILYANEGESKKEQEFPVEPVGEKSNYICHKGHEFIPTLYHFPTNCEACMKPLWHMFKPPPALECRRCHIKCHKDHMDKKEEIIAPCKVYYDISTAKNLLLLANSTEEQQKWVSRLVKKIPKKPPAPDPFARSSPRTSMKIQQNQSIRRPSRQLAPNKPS

Structure (SMILES) | Specificity of kinase inhibition (FIG. 10)
CC(C)NC(=O)COc1cccc(-c2nc(Nc3ccc4[nH]ncc4c3)c3ccccc3n2)c1 [Example 82, 2-(3-(4-(1H-indazol-5-ylamino)quinazolin-2-yl)phenoxy)-N-isopropylacetamide] | specific inhibition of ROCK2
C[C@@H](N)[C@H]1CC[C@H](C(=O)Nc2ccncc2)CC1 [Example Y27632, reference compound] | inhibits both ROCK1 and ROCK2, as well as PKC

same assay, conditions: Table 1; repeat determinations

Structure (SMILES) | IC50
CCCC(=O)Nc1cccc(-c2nc(Nc3ccc4[nH]ncc4c3)c3cc(OCCN4CCC(O)C4)ccc3n2)c1 (centres unmarked) [Example 205, N-(3-(4-(1H-indazol-5-ylamino)-6-(2-(3-hydroxypyrrolidin-1-yl)ethoxy)-quinazolin-2-yl)phenyl)butyramide] | 0.011 µM and 0.012 µM and 0.008 µM and 0.013 µM
CCCC(=O)Nc1cccc(-c2nc(Nc3ccc4[nH]ncc4c3)c3cc(OCCN4CCN(C)CC4)c(OC)cc3n2)c1 [Example 209, N-(3-(4-(1H-indazol-5-ylamino)-7-methoxy-6-(2-(4-methylpiperazin-1-yl)ethoxy)quinazolin-2-yl)phenyl)butyramide] | 0.016 µM and 0.014 µM
CCCC(=O)Nc1cccc(-c2nc(Nc3ccc4[nH]ncc4c3)c3cc(OCCN4CC[C@H](N(C)C)C4)c(OC)cc3n2)c1 [Example 210, N-(3-(4-(1H-indazol-5-ylamino)-6-(2-((S)-3-(dimethylamino)pyrrolidin-1-yl)ethoxy)-7-methoxyquinazolin-2-yl)phenyl)butyramide] | 0.018 µM and 0.01 µM
CCCC(=O)Oc1cccc(-c2nc(Nc3ccc4[nH]ncc4c3)c3ccccc3n2)c1 [Example 211] | 0.129 µM
O=C(Nc1ccccc1-c1nc(Nc2ccc3[nH]ncc3c2)c2ccccc2n1)c1ccoc1 [Example 216] | > 100 µM
O=C(CN1CCCC1)Nc1ccccc1-c1nc(Nc2ccc3[nH]ncc3c2)c2ccccc2n1 [Example 217] | 36 µM
O=C(Nc1ccccc1-c1nc(Nc2ccc3[nH]ncc3c2)c2ccccc2n1)C1CCCNC1 (centres unmarked) [Example 218] | > 100 µM
COC(=O)Nc1ccccc1-c1nc(Nc2ccc3[nH]ncc3c2)c2ccccc2n1 [Example 219] | 2.9 µM
CN(C)C(=O)Nc1ccccc1-c1nc(Nc2ccc3[nH]ncc3c2)c2ccccc2n1 [Example 221] | 49 µM
CN(C)CCC(=O)Nc1ccccc1-c1nc(Nc2ccc3[nH]ncc3c2)c2ccccc2n1 [Example 224] | 5.3 µM
COCC(=O)Nc1ccccc1-c1nc(Nc2ccc3[nH]ncc3c2)c2ccccc2n1 [Example 225] | 1.7 µM
CC(C)NC(=O)CNc1cccc(-c2nc(Nc3ccc4[nH]ncc4c3)c3ccccc3n2)c1 [Example 230] | > 3 µM
COCCNC(=O)COc1ccccc1-c1nc(Nc2ccc3[nH]ncc3c2)c2ccccc2n1 [Example 234] | > 100 µM
O=C(COc1ccccc1-c1nc(N(CC(=O)NCC2CC2)c2ccc3[nH]ncc3c2)c2ccccc2n1)NCC1CC1 [Example 235] | > 100 µM
O=C(COc1ccccc1-c1nc(N(CC(=O)NCc2ccccc2)c2ccc3[nH]ncc3c2)c2ccccc2n1)NCc1ccccc1 [Example 236] | > 100 µM
O=C(COc1ccccc1-c1nc(Nc2ccc3[nH]ncc3c2)c2ccccc2n1)NCc1ccccc1 [Example 237] | > 100 µM
COc1ccccc1-c1nc(Nc2ccc3[nH]ncc3c2)c2ccccc2n1 [Example 239] | > 100 µM
CCCC(=O)Nc1cccc(-c2nc(Nc3ccc4c(cnn4C)c3)c3cc(OCCN(C)C)ccc3n2)c1 [Example 243] | > 0.3 µM
CCCC(=O)Nc1cccc(-c2nc(Nc3ccc4[nH]ncc4c3)c3cc(OCC4CC4)ccc3n2)c1 [Example 258] | 0.255 µM and 0.182 µM
CCCC(=O)Nc1cccc(-c2nc(Nc3ccc4c(cnn4C(=O)OC(C)(C)C)c3)c3cc(OCCOC)c(OC)cc3n2)c1 [Example 261] | > 0.3 µM
CCCC(=O)Nc1cccc(-c2nc(Nc3ccc4[nH]ncc4c3)c3cc(OC)c(OCCOC)cc3n2)c1 [Example 262] | 0.024 µM
Oc1ccc2nc(-c3ccccc3)nc(Nc3ccc4[nH]ncc4c3)c2c1 [Example 267] | 3.9 µM

More lines, now with the values ahead:

IC50 | Structure (SMILES)
0.012 µM and 0.0095 µM | CCCC(=O)Nc1cccc(-c2nc(Nc3ccc4[nH]ncc4c3)c3cc(OCCN4CCN(C)CC4)ccc3n2)c1 [Example 203, N-(3-(4-(1H-indazol-5-ylamino)-6-(2-(4-methylpiperazin-1-yl)ethoxy)-quinazolin-2-yl)phenyl)butyramide]
0.048 µM and 0.064 µM | CCCC(=O)Nc1cccc(-c2nc(Nc3ccc4[nH]ncc4c3)c3cc(OCCN4CCCC4=O)c(OC)cc3n2)c1 [Example 206, N-(3-(4-(1H-indazol-5-ylamino)-7-methoxy-6-(2-(2-oxopyrrolidin-1-yl)ethoxy)quinazolin-2-yl)phenyl)butyramide]
> 100 µM | CCCC(=O)Nc1ccccc1-c1nc(Nc2ccc3[nH]ncc3c2)c2ccccc2n1 [Example 212]
> 100 µM | COCCN(C)CC(=O)Nc1ccccc1-c1nc(Nc2ccc3[nH]ncc3c2)c2ccccc2n1 [Example 213]
> 100 µM | CC(C)(C)C(=O)Nc1ccccc1-c1nc(Nc2ccc3[nH]ncc3c2)c2ccccc2n1 [Example 214]
17 µM and > 10 µM | CNCC(=O)Nc1ccccc1-c1nc(Nc2ccc3[nH]ncc3c2)c2ccccc2n1 [Example 215]
> 100 µM | O=C(Nc1ccccc1-c1nc(Nc2ccc3[nH]ncc3c2)c2ccccc2n1)N1CCOCC1 [Example 220]
> 100 µM | O=C(Nc1ccccc1-c1nc(Nc2ccc3[nH]ncc3c2)c2ccccc2n1)c1ccncc1 [Example 222]
> 100 µM | O=C(Nc1ccccc1-c1nc(Nc2ccc3[nH]ncc3c2)c2ccccc2n1)c1ccccn1 [Example 223]
> 3 µM | O=C(CN1CCOCC1)Nc1ccccc1-c1nc(Nc2ccc3[nH]ncc3c2)c2ccccc2n1 [Example 231]
> 100 µM | CC(C)NC(=O)COc1ccccc1-c1nc(Nc2ccc3[nH]ncc3c2)c2ccccc2n1 [Example 232]
2 µM and 2.5 µM | Oc1ccccc1-c1nc(Nc2ccc3[nH]ncc3c2)c2ccccc2n1 [Example 233]
> 100 µM | COCCNC(=O)COc1ccccc1-c1nc(N(CC(=O)NCCOC)c2ccc3[nH]ncc3c2)c2ccccc2n1 [Example 238]
23 µM | CC(=O)Oc1ccccc1-c1nc(Nc2ccc3[nH]ncc3c2)c2ccccc2n1 [Example 240]
0.029 µM | CCCCC(=O)Nc1cccc(-c2nc(Nc3ccc4[nH]ncc4c3)c3ccccc3n2)c1 [Example 259]
6.5 µM and 7.3 µM | c1ccc(-c2nc(Nc3ccc4[nH]ncc4c3)c3cc(OCCN4CCOCC4)ccc3n2)cc1 [Example 265]

target: ROCK 1 (Homo sapiens (Human), UniProt Q13464); test: Inhibition of ROCK1 (Rho kinase inhibition assay); type: biochemical; conditions: Tables 2.1-2.4
Excerpt: as §1, §2, §3

Chain of ROCK 1 (Q13464 whole entry, species assumed): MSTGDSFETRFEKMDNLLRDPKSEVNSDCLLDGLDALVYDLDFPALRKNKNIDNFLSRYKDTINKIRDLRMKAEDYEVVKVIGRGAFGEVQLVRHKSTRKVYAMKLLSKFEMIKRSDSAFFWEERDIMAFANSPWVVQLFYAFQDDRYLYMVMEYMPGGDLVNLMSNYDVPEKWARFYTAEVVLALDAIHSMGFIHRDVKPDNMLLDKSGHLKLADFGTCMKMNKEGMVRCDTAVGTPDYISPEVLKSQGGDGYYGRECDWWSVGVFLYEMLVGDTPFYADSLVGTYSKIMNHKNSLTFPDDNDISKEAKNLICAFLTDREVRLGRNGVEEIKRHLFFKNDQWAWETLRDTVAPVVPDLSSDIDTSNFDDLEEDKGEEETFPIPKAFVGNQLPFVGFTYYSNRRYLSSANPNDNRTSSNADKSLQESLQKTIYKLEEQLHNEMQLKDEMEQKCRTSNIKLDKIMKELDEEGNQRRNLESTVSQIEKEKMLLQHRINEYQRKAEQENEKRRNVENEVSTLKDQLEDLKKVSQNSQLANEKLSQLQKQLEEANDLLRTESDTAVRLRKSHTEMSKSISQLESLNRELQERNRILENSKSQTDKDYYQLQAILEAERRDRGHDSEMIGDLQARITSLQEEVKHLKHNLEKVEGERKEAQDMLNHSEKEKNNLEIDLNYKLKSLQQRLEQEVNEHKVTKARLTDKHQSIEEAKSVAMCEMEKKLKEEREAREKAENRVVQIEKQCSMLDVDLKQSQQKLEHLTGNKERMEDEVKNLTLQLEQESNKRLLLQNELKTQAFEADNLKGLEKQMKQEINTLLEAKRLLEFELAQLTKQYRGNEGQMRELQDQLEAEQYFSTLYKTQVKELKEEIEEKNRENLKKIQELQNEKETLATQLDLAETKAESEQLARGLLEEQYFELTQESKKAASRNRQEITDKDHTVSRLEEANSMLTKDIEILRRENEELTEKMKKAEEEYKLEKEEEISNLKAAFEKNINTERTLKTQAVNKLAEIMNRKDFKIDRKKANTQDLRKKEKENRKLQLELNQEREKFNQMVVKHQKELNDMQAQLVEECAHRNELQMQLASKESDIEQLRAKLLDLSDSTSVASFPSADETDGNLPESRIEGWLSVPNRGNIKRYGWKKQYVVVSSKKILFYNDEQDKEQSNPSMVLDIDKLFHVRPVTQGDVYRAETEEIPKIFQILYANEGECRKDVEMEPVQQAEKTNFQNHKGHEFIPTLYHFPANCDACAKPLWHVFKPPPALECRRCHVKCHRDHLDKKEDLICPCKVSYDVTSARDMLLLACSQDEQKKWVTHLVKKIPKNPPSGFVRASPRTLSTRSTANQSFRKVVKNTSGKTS

Structure (SMILES) | pIC50
COCCNC(=O)COc1cccc(-c2nc(Nc3ccc4[nH]ncc4c3)c3ccccc3n2)c1 [Example 54, 2-(3-(4-(1H-indazol-5-ylamino)quinazolin-2-yl)phenoxy)-N-(2-methoxyethyl)acetamide] | < 5.00
O=C(COc1cccc(-c2nc(Nc3ccc4[nH]ncc4c3)c3ccccc3n2)c1)Nc1cccnc1 [Example 55, 2-(3-(4-(1H-indazol-5-ylamino)quinazolin-2-yl)phenoxy)-N-(pyridin-3-yl)acetamide] | < 5.00
CCCC(=O)Nc1cccc(-c2nc(Nc3ccc4[nH]ncc4c3)c3cc(OCCN(C)C)ccc3n2)c1 [Example 141, N-(3-(4-(1H-indazol-5-ylamino)-6-(2-(dimethylamino)ethoxy)quinazolin-2-yl)phenyl)butyramide] | < 6.00
CCCC(=O)Nc1cccc(-c2nc(Nc3ccc4[nH]ncc4c3)c3cc(OCCCN4CCOCC4)c(OC)cc3n2)c1 [Example 160, N-(3-(4-(1H-indazol-5-ylamino)-7-methoxy-6-(3-morpholinopropoxy)quinazolin-2-yl)phenyl)butyramide] | < 5.52
CC(=O)Oc1cccc(-c2nc(Nc3ccc4[nH]ncc4c3)c3ccccc3n2)c1 [Example 272] | < 5.00

Results, then the compound that gave them:

pIC50 | Structure (SMILES)
< 5.52 | COc1cc2nc(-c3cccc(NC(=O)CN4CCOCC4)c3)nc(Nc3ccc4[nH]ncc4c3)c2cc1OCCN1CCCC1 [Example 167, N-(3-(4-(1H-Indazol-5-ylamino)-7-methoxy-6-(2-(pyrrolidin-1-yl)ethoxy)quinazolin-2-yl)phenyl)-2-morpholinoacetamide]
< 5.52 | CCCC(=O)Nc1cccc(-c2nc(Nc3ccc4[nH]ncc4c3)c3ccc(OCCOC)cc3n2)c1 [Example 263]
